Experimental data: PMC11372264, “^61Cu-PSMA–Targeted PET for Prostate Cancer: From Radiotracer Development to First-in-Human Imaging” (Journal of Nuclear Medicine, 2024)

Columns and labels:
[1] = Lipophilicity: distribution coefficient in 1:1 1-octanol/phosphate-buffered saline at pH 7.4; format: physicochemical
Description: The lipophilicity of [^61Cu]Cu-DOTAGA-PSMA-I&T and [^61Cu]Cu-NODAGA-PSMA-I&T was assessed by determining the distribution coefficient in a 1:1 mixture of 1-octanol–to–phosphate-buffered saline at pH 7.4, in comparison with all reference radiotracers. Inhibitory concentration of 50% (IC50) was assessed by competition binding on lymph node carcinoma of the prostate (LNCaP) using ((S)-1-carboxy-5-(4-(-^125I-iodo-benzamido)pentyl)carbamoyl)-L-glutamic acid as the reference radioligand. Cellular uptake and distribution were assessed in LNCaP cells at 5, 15, 30, 60, and 120 min after exposure to the radioligand at 37°C, either alone or in the presence of 10 µM 2-(phosphonomethyl)pentanedioic acid to distinguish between specific and nonspecific uptake.

LNCaP xenografts = test: Biodistribution in LNCaP xenografts; format: in vivo, mice
Description: All animal experiments were conducted in accordance with Swiss animal welfare laws and regulations under license number 30515 granted by the Veterinary Office, Department of Health, Canton Basel-Stadt, Switzerland. Male athymic nude-Foxn1^nu/Foxn1^+ mice (Envigo), 4–6 wk old, were inoculated subcutaneously on the shoulder with 10^7 LNCaP cells, freshly suspended in a 1:1 ratio of sterile minimum essential medium with basal medium Eagle and Matrigel. The tumors were allowed to grow to a volume of approximately 200 mm^3.
The biodistribution of [^61Cu]Cu-DOTAGA-PSMA-I&T and [^61Cu]Cu-NODAGA-PSMA-I&T (100 µL/200 pmol/2–3 MBq) was compared with that of [^68Ga]Ga-DOTAGA-PSMA-I&T, [^68Ga]Ga-NODAGA-PSMA-I&T, and [^68Ga]Ga-PSMA-11 (100 µL/200 pmol/3–5 MBq), as well as [^18F]PSMA-1007 (100 µL/70 pmol/15 MBq). This comparison was conducted at 1 h after injection for all radiotracers and at 4 h after injection for the ^61Cu-labeled tracers and [^18F]PSMA-1007. The specificity of the ^61Cu-labeled tracers was assessed at 1 h after injection by blocking studies with 2-(phosphonomethyl)pentanedioic acid (100 µL/1.3 µmol) being injected 3–5 min before the injection of the radiotracer.

[2] = 1 h after injection, blocking with 2-(phosphonomethyl)pentanedioic acid 1.3 µmol

## O=C([O-])CN1CCN(CC(=O)[O-])CCN(C(CCC(=O)N[C@H](Cc2ccc(O)c(I)c2)C(=O)N[C@H](Cc2ccccc2)C(=O)N[C@H](CCCCNC(=O)CCCCCCC(=O)NCCCC[C@H](NC(=O)N[C@@H](CCC(=O)O)C(=O)O)C(=O)O)C(=O)O)C(=O)O)CC1.[61Cu+2] (stereo partly drawn) [[^61Cu]Cu-NODAGA-PSMA-I&T, NODAGA-(l-y)fk(sub-KuE)]
[1]
  logDpH7.4: −2.95 ± 0.08
LNCaP xenografts; 1 h after injection
  Biodistribution, Adrenals: 17.3 ± 3.26 %IA/g
  Biodistribution, Blood: 0.28 ± 0.06 %IA/g
  Biodistribution, Femur: 2.73 ± 0.91 %IA/g
  Biodistribution, Heart: 0.45 ± 0.15 %IA/g
  Biodistribution, Intestine: 2.11 ± 0.78 %IA/g
  Biodistribution, Kidneys: 118 ± 13 %IA/g
  Biodistribution, Liver: 1.02 ± 0.28 %IA/g
  Biodistribution, Lung: 1.69 ± 0.45 %IA/g
  Biodistribution, Muscles: 1.12 ± 0.32 %IA/g
  Biodistribution, Pancreas: 0.97 ± 0.36 %IA/g
  Biodistribution, Salivary glands: 2.01 ± 0.33 %IA/g
  Biodistribution, Spleen: 6.04 ± 1.87 %IA/g
  Biodistribution, Stomach: 1.13 ± 0.20 %IA/g
  Biodistribution, Tumor (tumor uptake): 14.0 ± 5.0 %IA/g
  Tumor-to-Adrenals ratio: 0.92 ± 0.20
  Tumor-to-Blood ratio: 55.8 ± 20.0
  Tumor-to-Intestine ratio: 7.87 ± 2.93
  Tumor-to-Kidneys ratio: 0.13 ± 0.03
  Tumor-to-Liver ratio: 14.9 ± 4.9
  Tumor-to-Muscles ratio: 13.6 ± 3.75
  Tumor-to-Salivary glands ratio: 7.83 ± 3.16
  Tumor-to-Spleen ratio: 2.86 ± 1.37
LNCaP xenografts; [2]
  Biodistribution, Adrenals: 0.95 ± 0.16 %IA/g
  Biodistribution, Blood: 0.19 ± 0.01 %IA/g
  Biodistribution, Femur: 0.39 ± 0.24 %IA/g
  Biodistribution, Heart: 0.33 ± 0.03 %IA/g
  Biodistribution, Intestine: 0.87 ± 0.10 %IA/g
  Biodistribution, Kidneys: 4.59 ± 0.35 %IA/g
  Biodistribution, Liver: 1.29 ± 0.21 %IA/g
  Biodistribution, Lung: 0.67 ± 0.06 %IA/g
  Biodistribution, Muscles: 0.32 ± 0.06 %IA/g
  Biodistribution, Pancreas: 0.28 ± 0.17 %IA/g
  Biodistribution, Salivary glands: 0.51 ± 0.20 %IA/g
  Biodistribution, Spleen: 0.33 ± 0.08 %IA/g
  Biodistribution, Stomach: 0.62 ± 0.04 %IA/g
  Biodistribution, Tumor: 0.68 ± 0.55 %IA/g
LNCaP xenografts; 4 h after injection
  Biodistribution, Adrenals: 8.32 ± 2.87 %IA/g
  Biodistribution, Blood: 0.10 ± 0.03 %IA/g
  Biodistribution, Femur: 1.34 ± 0.48 %IA/g
  Biodistribution, Heart: 0.22 ± 0.05 %IA/g
  Biodistribution, Intestine: 1.06 ± 0.50 %IA/g
  Biodistribution, Kidneys: 90.9 ± 10.1 %IA/g
  Biodistribution, Liver: 0.72 ± 0.11 %IA/g
  Biodistribution, Lung: 0.74 ± 0.19 %IA/g
  Biodistribution, Muscles: 0.50 ± 0.22 %IA/g
  Biodistribution, Pancreas: 0.45 ± 0.09 %IA/g
  Biodistribution, Salivary glands: 0.52 ± 0.06 %IA/g
  Biodistribution, Spleen: 1.28 ± 0.39 %IA/g
  Biodistribution, Stomach: 0.66 ± 0.15 %IA/g
  Biodistribution, Tumor (tumor uptake): 10.7 ± 3.3 %IA/g
  Tumor-to-Adrenals ratio: 1.44 ± 0.65
  Tumor-to-Blood ratio: 109 ± 43
  Tumor-to-Intestine ratio: 12.5 ± 6.7
  Tumor-to-Kidneys ratio: 0.12 ± 0.03
  Tumor-to-Liver ratio: 15.4 ± 5.7
  Tumor-to-Muscles ratio: 25.4 ± 12.0
  Tumor-to-Salivary glands ratio: 19.5 ± 7.1
  Tumor-to-Spleen ratio: 9.16 ± 3.84
